Measured values from US8524755B2 (priority 2009, dated 2013).

What was measured:
[1] = target: T1, human GABAA α1β3 receptor (Homo sapiens, UniProt P14867+P28472); experiment: cell-based; settings: for inhibition at 100 µM: read-out: α1β3 GABAA % Inhibition @ 100 μM; for IC50: α1β3 GABAA IC50 (μM)
T1 construct: expressed in transfected cells; host or cells: Xenopus laevis oocytes, cDNA injection
T1 sequence (P14867 28-456): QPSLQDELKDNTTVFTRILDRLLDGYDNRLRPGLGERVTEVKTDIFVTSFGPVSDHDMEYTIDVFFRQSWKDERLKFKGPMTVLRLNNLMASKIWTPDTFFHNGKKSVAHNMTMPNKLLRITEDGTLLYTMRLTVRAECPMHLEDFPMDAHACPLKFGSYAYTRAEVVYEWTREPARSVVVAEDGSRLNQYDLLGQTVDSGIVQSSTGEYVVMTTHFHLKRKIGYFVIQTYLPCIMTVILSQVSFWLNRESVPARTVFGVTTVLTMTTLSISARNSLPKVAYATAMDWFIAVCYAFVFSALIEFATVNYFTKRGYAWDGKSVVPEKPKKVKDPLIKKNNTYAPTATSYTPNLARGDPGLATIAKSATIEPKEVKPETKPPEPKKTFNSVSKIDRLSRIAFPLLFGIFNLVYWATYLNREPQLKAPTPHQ
T1 sequence (P28472 26-473): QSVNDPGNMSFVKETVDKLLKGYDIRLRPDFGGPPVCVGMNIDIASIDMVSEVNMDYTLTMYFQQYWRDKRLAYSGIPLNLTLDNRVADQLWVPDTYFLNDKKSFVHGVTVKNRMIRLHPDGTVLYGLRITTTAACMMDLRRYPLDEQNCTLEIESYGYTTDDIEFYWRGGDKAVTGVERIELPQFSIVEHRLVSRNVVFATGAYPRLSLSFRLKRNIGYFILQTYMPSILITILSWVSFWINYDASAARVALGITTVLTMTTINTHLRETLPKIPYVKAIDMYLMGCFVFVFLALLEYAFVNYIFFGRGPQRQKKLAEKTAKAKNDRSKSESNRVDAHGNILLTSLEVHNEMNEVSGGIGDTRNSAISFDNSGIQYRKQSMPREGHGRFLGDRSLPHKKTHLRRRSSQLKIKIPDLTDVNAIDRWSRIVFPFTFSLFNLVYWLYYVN

[2] = target: T2, choline transporter (CHT1) (h) (Homo sapiens, UniProt Q9GZV3); experiment: Binding choline transporter (CHT1) (h) (aa); settings: read-out: % Inhibition of Control Specific Binding @ 10 μM
T2 construct: expressed in transfected cells; host or cells: CHO cells
T2 sequence (Q9GZV3 1-580): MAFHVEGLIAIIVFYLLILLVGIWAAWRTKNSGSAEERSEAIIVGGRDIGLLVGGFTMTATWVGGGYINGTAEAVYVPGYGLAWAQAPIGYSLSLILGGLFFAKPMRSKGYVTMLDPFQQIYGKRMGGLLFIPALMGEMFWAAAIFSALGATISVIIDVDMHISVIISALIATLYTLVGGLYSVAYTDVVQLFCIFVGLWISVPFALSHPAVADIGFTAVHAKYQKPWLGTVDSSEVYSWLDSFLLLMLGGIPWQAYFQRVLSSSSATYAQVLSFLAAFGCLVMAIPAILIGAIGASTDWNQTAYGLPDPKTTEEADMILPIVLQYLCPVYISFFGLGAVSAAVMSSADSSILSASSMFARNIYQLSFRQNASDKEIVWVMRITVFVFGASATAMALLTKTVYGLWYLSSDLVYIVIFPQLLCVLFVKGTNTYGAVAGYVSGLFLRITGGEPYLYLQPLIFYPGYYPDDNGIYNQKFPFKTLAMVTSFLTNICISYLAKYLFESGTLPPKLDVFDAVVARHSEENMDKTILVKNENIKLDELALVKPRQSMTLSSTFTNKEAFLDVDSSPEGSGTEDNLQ
Procedure: (§1) Radioligand binding assay methods utilized to measure the activity of compounds of the invention will be familiar to those skilled in the art. In each assay case, the assay components such as, for example, the cell-type, ligand, reference compound and the like, will be familiar to practitioners of such an assay.
(§2) Analysis and Expression of Results: Compounds of the invention were tested in the biochemical assays and percent inhibition of specific binding was determined. The specific ligand binding to the receptors is defined as the difference between the total binding and the nonspecific binding determined in the presence of an excess of unlabelled ligand. The results are expressed as a percent inhibition of control specific binding (100−((measured specific binding/control specific binding)×100)) obtained in the presence of test compounds.

CysLT1 (LTD4) (h) = target: T3, CysLT1 (LTD4) (h) (Homo sapiens, UniProt Q9Y271); experiment: Binding CysLT1 (LTD4) (ag); settings: read-out: % Inhibition of Control Specific Binding @ 10 μM
T3 construct: expressed in transfected cells; host or cells: CHO cells
T3 sequence (Q9Y271 1-337): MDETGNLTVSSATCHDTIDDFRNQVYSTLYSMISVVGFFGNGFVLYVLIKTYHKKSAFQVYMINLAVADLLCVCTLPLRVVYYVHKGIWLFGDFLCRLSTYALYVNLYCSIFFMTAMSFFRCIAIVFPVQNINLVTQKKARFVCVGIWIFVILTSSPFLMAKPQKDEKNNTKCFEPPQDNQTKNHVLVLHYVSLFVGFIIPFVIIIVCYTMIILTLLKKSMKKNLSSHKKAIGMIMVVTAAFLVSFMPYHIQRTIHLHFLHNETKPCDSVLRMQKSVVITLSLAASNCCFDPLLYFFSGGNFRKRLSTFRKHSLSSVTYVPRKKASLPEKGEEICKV
Procedure: as §1, §2

Neurokinin NK1 (h) = target: T4, Neurokinin NK1 (h) (Homo sapiens, UniProt P25103); experiment: Binding NK1 (h) (ag); settings: read-out: % Inhibition of Control Specific Binding @ 10 μM
T4 construct: (endogenous); endogenous in cells; host or cells: U-373MG cells
Procedure: as §1, §2

GABA transaminase = target: T5, GABA transaminase (Rattus norvegicus, UniProt P50554); experiment: Enzyme assay GABA transaminase; type: biochemical; settings: read-out: % Inhibition of Control Values @ 10 μM
T5 construct: rat brain; from tissue; host or cells: rat brain
Description: (§3) The enzyme assays provided below will be familiar to those skilled in the art.
(§4) Analysis and Expression of Results: The results are expressed as a percent of control specific activity ((measured specific activity/control specific activity)×100) obtained in the presence of the test compounds.

acetylcholinesterase (h) = target: T6, acetylcholinesterase (h) (Homo sapiens, UniProt P22303); experiment: Enzyme assay acetylcholinesterase (h); type: biochemical; settings: read-out: % Inhibition of Control Values @ 10 μM
T6 construct: host or cells: HEK-293 cells
Description: as §3, §4

Histamine H1 (h) = target: T7, Histamine H1 (h) (Homo sapiens, UniProt P35367); experiment: Binding H1 (h) (aa); settings: read-out: % Inhibition of Control Specific Binding @ 10 μM
T7 construct: expressed in transfected cells; host or cells: HEK-293 cells
Procedure: as §1, §2

5-HT transporter (h) = target: T8, 5-HT transporter (h) (Homo sapiens, UniProt P31645); experiment: Binding 5-HT transporter (h) (aa); settings: read-out: % Inhibition of Control Specific Binding @ 10 μM
T8 construct: expressed in transfected cells; host or cells: CHO cells
Procedure: as §1, §2

Estrogen ER (ns) (h) = target: T9, Estrogen ER (ns) (h) (Homo sapiens, UniProt P03372); experiment: Binding ER (ns) (h) (ag); settings: read-out: % Inhibition of Control Specific Binding @ 10 μM
T9 construct: MCF-7 cells (cytosol); endogenous in cells; host or cells: MCF-7 cells (cytosol)
Procedure: as §1, §2

Histamine H2 (h) = target: T10, Histamine H2 (h) (Homo sapiens, UniProt P25021); experiment: Binding H2 (h) (aa); settings: read-out: % Inhibition of Control Specific Binding @ 10 μM
T10 construct: expressed in transfected cells; host or cells: CHO cells
Procedure: as §1, §2

Na^+ channel (site 2) = experiment: Binding Na+ channel (site 2) (aa); design: species or system rat
Procedure: as §1, §2

T10 sequence (P25021 whole entry): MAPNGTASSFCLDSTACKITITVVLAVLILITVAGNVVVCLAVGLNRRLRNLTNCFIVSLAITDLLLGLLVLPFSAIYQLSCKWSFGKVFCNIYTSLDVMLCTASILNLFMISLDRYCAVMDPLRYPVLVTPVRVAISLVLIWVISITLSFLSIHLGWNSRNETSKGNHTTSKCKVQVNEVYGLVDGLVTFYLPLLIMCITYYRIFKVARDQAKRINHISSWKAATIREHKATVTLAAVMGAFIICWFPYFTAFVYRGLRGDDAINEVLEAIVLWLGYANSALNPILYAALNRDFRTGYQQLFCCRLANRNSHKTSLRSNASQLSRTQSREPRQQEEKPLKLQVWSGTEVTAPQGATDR
T9 sequence (P03372 whole entry): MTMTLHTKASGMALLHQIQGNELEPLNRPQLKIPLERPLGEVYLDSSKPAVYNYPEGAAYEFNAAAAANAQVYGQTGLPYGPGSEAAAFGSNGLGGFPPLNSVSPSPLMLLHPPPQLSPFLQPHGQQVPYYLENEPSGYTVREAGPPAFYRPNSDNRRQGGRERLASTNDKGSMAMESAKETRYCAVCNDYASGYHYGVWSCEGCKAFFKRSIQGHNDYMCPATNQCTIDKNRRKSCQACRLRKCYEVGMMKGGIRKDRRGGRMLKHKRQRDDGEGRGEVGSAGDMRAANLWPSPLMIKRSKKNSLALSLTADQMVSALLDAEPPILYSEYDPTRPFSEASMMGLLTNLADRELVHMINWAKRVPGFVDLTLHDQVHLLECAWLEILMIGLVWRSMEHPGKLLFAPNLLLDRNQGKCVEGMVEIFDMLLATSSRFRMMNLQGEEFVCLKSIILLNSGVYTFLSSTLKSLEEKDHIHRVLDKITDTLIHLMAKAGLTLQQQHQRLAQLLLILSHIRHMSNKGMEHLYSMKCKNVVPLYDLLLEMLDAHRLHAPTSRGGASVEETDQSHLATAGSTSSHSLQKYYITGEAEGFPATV
T6 sequence (P22303 32-614): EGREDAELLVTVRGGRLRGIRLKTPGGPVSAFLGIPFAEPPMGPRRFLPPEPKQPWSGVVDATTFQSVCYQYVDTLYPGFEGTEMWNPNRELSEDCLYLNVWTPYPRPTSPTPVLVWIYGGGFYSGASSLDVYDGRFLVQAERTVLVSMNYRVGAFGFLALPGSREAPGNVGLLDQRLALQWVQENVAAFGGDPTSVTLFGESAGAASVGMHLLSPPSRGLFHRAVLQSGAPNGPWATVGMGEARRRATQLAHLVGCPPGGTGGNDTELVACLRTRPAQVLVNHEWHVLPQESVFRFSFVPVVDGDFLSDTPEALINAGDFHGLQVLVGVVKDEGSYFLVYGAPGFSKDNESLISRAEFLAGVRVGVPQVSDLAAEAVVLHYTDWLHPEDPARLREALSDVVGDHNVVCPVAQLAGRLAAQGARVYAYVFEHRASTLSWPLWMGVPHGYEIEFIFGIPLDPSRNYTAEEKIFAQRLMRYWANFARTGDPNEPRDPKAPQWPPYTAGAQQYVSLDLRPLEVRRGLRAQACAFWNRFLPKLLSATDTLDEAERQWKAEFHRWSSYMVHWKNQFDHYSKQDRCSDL
T8 sequence (P31645 whole entry): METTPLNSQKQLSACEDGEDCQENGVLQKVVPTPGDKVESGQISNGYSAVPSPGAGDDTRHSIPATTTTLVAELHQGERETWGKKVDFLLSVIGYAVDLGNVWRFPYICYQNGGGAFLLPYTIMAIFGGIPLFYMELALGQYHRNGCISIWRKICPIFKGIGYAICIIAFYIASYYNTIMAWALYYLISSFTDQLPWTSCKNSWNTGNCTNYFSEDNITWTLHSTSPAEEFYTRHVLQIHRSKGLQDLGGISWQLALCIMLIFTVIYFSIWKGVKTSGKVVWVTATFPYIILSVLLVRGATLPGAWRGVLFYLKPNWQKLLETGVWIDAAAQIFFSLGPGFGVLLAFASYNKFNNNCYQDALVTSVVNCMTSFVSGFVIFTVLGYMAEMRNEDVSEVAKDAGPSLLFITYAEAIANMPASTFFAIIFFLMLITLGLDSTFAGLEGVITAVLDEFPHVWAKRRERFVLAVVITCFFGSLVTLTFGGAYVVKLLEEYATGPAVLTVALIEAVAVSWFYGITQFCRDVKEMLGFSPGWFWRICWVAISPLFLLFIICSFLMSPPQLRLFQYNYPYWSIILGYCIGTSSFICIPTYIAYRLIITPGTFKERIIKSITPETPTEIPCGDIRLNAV
T5 sequence (P50554 28-500): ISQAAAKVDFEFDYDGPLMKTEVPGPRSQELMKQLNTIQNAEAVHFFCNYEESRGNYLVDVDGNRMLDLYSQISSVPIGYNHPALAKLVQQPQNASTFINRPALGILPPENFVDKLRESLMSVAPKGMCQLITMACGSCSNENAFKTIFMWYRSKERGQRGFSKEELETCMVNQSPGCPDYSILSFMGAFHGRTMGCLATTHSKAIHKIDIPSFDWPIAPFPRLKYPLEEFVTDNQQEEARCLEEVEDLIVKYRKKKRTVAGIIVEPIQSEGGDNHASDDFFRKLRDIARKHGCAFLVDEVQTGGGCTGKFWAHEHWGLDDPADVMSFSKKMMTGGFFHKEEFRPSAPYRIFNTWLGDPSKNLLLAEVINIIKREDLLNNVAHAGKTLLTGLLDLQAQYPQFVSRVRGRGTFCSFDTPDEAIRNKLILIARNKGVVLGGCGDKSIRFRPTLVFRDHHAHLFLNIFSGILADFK
T7 sequence (P35367 whole entry): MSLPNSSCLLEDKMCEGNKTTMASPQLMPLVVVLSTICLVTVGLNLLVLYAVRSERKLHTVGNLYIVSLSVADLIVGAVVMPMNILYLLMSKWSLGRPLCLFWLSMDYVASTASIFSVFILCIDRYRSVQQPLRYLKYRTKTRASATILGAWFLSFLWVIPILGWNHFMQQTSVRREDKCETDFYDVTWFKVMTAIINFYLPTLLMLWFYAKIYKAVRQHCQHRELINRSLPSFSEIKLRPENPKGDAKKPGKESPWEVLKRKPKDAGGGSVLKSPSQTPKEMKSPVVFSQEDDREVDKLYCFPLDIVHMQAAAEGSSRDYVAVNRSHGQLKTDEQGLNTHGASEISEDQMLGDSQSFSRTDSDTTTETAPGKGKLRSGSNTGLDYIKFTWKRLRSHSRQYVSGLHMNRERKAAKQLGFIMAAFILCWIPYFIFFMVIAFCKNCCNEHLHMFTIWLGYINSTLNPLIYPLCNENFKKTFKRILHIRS
T4 sequence (P25103 whole entry): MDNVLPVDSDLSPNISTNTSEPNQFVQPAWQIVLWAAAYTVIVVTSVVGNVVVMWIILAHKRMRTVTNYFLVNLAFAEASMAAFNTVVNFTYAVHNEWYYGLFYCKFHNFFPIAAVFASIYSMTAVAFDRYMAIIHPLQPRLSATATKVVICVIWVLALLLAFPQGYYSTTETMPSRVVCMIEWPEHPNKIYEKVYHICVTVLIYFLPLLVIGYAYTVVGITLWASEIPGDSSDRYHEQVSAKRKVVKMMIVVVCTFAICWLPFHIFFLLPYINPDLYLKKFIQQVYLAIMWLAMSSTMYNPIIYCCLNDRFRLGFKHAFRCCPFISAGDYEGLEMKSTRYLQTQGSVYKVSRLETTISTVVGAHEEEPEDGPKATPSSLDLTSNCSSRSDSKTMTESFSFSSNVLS

| SMILES | inhibition achieved at the highest concentration [1] [%] | inhibition at 100 µM [1] [%] | IC50 [1] [µM] | inhibition at 10 µM [2] [%] | inhibition at 10 µM (CysLT1 (LTD4) (h)) [%] | inhibition at 10 µM (Neurokinin NK1 (h)) [%] | inhibition at 10 µM (GABA transaminase) [%] | inhibition at 10 µM (acetylcholinesterase (h)) [%] | inhibition at 10 µM (Histamine H1 (h)) [%] | inhibition at 10 µM (5-HT transporter (h)) [%] | inhibition at 10 µM (Estrogen ER (ns) (h)) [%] | inhibition at 10 µM (Histamine H2 (h)) [%] | % Inhibition of Control Specific Binding @ 10 μM (Na^+ channel (site 2)) [%] |
| --- | --- | --- | --- | --- | --- | --- | --- | --- | --- | --- | --- | --- | --- |
| CC1(C)C(=O)N(c2ccc(C#N)c(C(F)(F)F)c2)C(=S)N1c1ccc(C(=O)O)c(F)c1 [(MI), 4-(3-(4-cyano-3-(trifluoromethyl)phenyl)-5,5-dimethyl-4-oxo-2-thioxoimidazolidin-1-yl)-2-fluorobenzoic acid] | 75±18.4 | 90 | 20.7 ± 6 | -16 | 3 | -7 | -7 | 51 | -8 | 1 | -8 | -41 | −5 |
| CC1(C)C(=O)N(c2ccc(C#N)c(C(F)(F)F)c2)C(=O)N1c1ccc(C(N)=O)c(F)c1 [(MIII), 4-(3-(4-cyano-3-(trifluoromethyl)phenyl)-5,5-dimethyl-2,4-dioxoimidazolidin-1-yl)-2-fluorobenzamide] | – | 57 | 4 ± 3.15 | -13 | 11 | -9 | -2 | -1 | -2 | 13 | -2 | -19 | 1 |
| CNC(=O)c1ccc(N2C(=O)N(c3ccc(C#N)c(C(F)(F)F)c3)C(=O)C2(C)C)cc1F [(MIV), 4-(3-(4-cyano-3-(trifluoromethyl)phenyl)-5,5-dimethyl-2,4-dioxoimidazolidin-1-yl)-2-fluoro-N-methylbenzamide] | – | 78 | – | 10 | 11 | -7 | -1 | 23 | -11 | 18 | -11 | -20 | 5 |
| CC1(C)C(=O)N(c2ccc(C#N)c(C(F)(F)F)c2)C(=S)N1c1ccc(C(N)=O)c(F)c1 [(MII), 4-(3-(4-Cyano-3-(trifluoromethyl)phenyl)-5,5-dimethyl-4-oxo-2-thioxoimidazolidin-1-yl)-2-fluorobenzamide] | 80±10 | 88 | – | -22 | 18 | 9 | -5 | 9 | 2 | 16 | 3 | -27 | 13 |
